We go through 2 molecules from article PMC4583475, “Receptor Polymorphism and Genomic Structure Interact to Shape Bitter Taste Perception” (PLoS Genetics, 2015).

In one assay the test system is TAS2R46-H3. As to the kind of experiment: Calcium imaging in HEK 293T Gα16gust44 cells transfected with TAS2R46-H3. Type of assay: cell-based, human. The note with it: first concentration eliciting significant receptor activation. The text has this: (§1) Allelic responses to agonists were quantified using in vitro heterologous expression assays designed in previous studies of TAS2R receptor function, which successfully mimic responses in vivo with respect to both magnitude and concentration range [17, 23, 25, 26, 46]. DNA fragments containing TAS2R coding sequences were first amplified from genomic DNA by PCR using a proofreading polymerase (PfuUltra II Fusion HotStart DNA Polymerase; Agilent Technologies, Santa Clara, CA, USA) and cloned into a plasmid vector according to the manufacturer’s protocol (Zero Blunt TOPO PCR Cloning Kit; Life Technologies). A second PCR was performed using specific cloning primers to facilitate subcloning into the expression vector, which was then modified to add an N-terminal signal for cell surface localisation and a C-terminal epitope for immunocytochemical detection to the receptor sequence (Fast Link DNA Ligation Kit; Epicentre, Illumina Inc., Madison, WI, USA) (pcDNA5/FRT Mammalian Expression Vector; Life Technologies). Empty vector was used as a negative control.
(§2) Functional assays were carried out in HEK 293T cells stably expressing the G protein chimera Gα16gust44 and transiently transfected with TAS2R alleles subcloned into the expression vector [78]. Calcium imaging was performed using an automated fluorometric imaging plate reader by exposing transfected cells to test compounds dissolved in assay buffer or to assay buffer alone (FLIPR Tetra; Molecular Devices, LLC, Sunnyvale, CA, USA). Changes in cytosolic calcium levels were monitored by measuring fluorescence intensity of a calcium-sensitive dye previously added (Fluo-4 AM; Life Technologies). Six replicates were carried out for each bitter stimulus, on separate experimental days, with each replicate consisting of concentration series of each bitter tastant.
(§3) Prior to final analysis, fluorescence data from functional assays, expressed in relative fluorescence units (RFU), underwent three corrections. First, a correction calculated from baseline values was applied to compensate for well-to-well fluctuations. A second correction calculated from negative control values was applied to correct for receptor independent artefacts and signal drift. A third correction calculated from positive control values was applied to facilitate comparison of data obtained from different experimental days. Fluorescence ratios ((F-F0)/F0), obtained by subtracting the background fluorescence from fluorescence peak height and then dividing the difference by the background fluorescence, were then used for data analysis. Variance analyses were performed, followed by Bonferroni multiple comparisons tests (SPSS 20; IBM Corporation, Armonk, NY, USA). Threshold response values were then defined as the first concentration eliciting a significant activation of the receptor, with empty vector acting as a negative control. Finally, dose-response curves were fitted to the Hill equation by nonlinear regression in order to determine half maximal effective concentrations (EC50) and maximal amplitude (SigmaPlot; Systat Software Inc., Chicago, IL, USA).

The next assay addresses T1, TAS2R46-H1 (Homo sapiens, UniProt P59540).
T1 construct: N-terminal signal for cell surface localisation (N); expressed in transfected cells; host or cells: HEK 293T cells stably expressing the G protein chimera Gα16gust44
T1 sequence (P59540 1-309): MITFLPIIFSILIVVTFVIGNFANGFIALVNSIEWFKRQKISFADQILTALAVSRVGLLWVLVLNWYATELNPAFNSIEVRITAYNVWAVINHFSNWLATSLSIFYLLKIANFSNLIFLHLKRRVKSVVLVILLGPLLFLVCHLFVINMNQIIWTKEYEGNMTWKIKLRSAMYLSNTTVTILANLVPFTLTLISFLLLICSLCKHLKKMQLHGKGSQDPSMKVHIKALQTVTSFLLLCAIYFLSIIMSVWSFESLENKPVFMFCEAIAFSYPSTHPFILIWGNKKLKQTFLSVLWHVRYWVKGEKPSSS
Nature of the assay: Calcium imaging in HEK 293T Gα16gust44 cells transfected with TAS2R46-H1. In kind it is cell-based.
Text: as §1, §2, §3

The next assay concerns TAS2R43-H1. Nature of the assay: Calcium imaging in HEK 293T Gα16gust44 cells transfected with TAS2R43-H1. Type of assay: cell-based, human. As to conditions: first concentration eliciting significant receptor activation.
Text: as §1, §2
as §3, with “Threshold response values were then defined as the first concentration eliciting a significant activation of the receptor, with empty vector acting as a negative control. Finally, dose-response curves were fitted to the Hill equation by nonlinear regression in order to determine half maximal effective concentrations (EC50) and maximal amplitude (SigmaPlot; Systat Software Inc., Chicago, IL, USA).” left out

Another assay relates to TAS2R30-H1. As to the kind of experiment: Calcium imaging in HEK 293T Gα16gust44 cells transfected with TAS2R30-H1. Type of assay: cell-based, human.
Text: as §1, §2, §3

The target in a further assay is T2, TAS2R46-H2 (Homo sapiens, UniProt P59540).
T2 construct: TAS2R46-H2, a truncated, six-transmembrane variant of the receptor; N-terminal signal for cell surface localisation (N); expressed in transfected cells; host or cells: HEK 293T cells stably expressing the G protein chimera Gα16gust44
T2 sequence (P59540 1-249 limits assumed): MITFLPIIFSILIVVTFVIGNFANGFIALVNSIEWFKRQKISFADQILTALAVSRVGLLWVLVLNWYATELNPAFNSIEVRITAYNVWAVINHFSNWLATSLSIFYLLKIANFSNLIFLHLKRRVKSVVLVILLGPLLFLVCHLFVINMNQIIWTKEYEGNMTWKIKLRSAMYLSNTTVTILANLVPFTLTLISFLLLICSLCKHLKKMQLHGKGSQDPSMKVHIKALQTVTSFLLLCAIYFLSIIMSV
Nature of the assay: Calcium imaging in HEK 293T Gα16gust44 cells transfected with TAS2R46-H2. In kind it is cell-based. As to conditions: TAS2R46-H2, truncated variant (premature stop codon).
Text: as §1, §2, §3

Assay [1] concerns TAS2R30, -31, -43, and -46. Nature of the assay: Calcium imaging functional assays, statements across TAS2R loci (variants not resolved). The note with it: fold higher than TAS2R30. Type of assay: cell-based, human.
Text: as §1
as §2, with “Six replicates were carried out for each bitter stimulus, on separate experimental days, with each replicate consisting of concentration series of each bitter tastant.” left out
Prior to final analysis, fluorescence data from functional assays, expressed in relative fluorescence units (RFU), underwent three corrections. First, a correction calculated from baseline values was applied to compensate for well-to-well fluctuations. A second correction calculated from negative control values was applied to correct for receptor independent artefacts and signal drift. […]

Assay [2] has as its system every known TAS2R in humans. Set-up: method as in PMID 20022913. As to conditions: complete TAS2R family; cited from earlier work.
The subject of the next assay is TAS2R43-H2. Nature of the assay: Calcium imaging in HEK 293T Gα16gust44 cells transfected with TAS2R43-H2. In kind it is cell-based, human. The note with it: first concentration eliciting significant receptor activation.
Text: as §1, §2
as §3, with “Threshold response values were then defined as the first concentration eliciting a significant activation of the receptor, with empty vector acting as a negative control. Finally, dose-response curves were fitted to the Hill equation by nonlinear regression in order to determine half maximal effective concentrations (EC50) and maximal amplitude (SigmaPlot; Systat Software Inc., Chicago, IL, USA).” left out

Another assay relates to TAS2R30-H2. As to the kind of experiment: Calcium imaging in HEK 293T Gα16gust44 cells transfected with TAS2R30-H2. Type of assay: cell-based, human.
Text: as §1, §2, §3

In assay [3] the test system is bitter taste perception of 48 Caucasian subjects. As to the kind of experiment: Human psychophysical bitter taste tests (4-AFC recognition thresholds, gLMS intensity ratings). In kind it is in vivo. As for the experimental part:
All were pre-screened to avoid inclusion of individuals with health problems and overt taste pathologies; pregnant and breast-feeding women were also excluded. Each subject participated in the entire course of the study, which included one training session and nine experimental sessions. Visits consisted of DNA collection and psychophysical tests for genotyping and phenotypic analyses, respectively. General taste abilities were also assessed for the bitter, salty, sour, and sweet taste during the first session.
Experiments were conducted at the sensory analysis laboratory of the German Institute of Human Nutrition Potsdam-Rehbruecke, according to good practice guidelines. […] Perceived bitter taste intensities were rated on the general Labelled Magnitude Scale (gLMS; [72–74]). […] For each 4-AFC test, four coded samples containing 10 ml solution were presented simultaneously; one containing the bitter tastant diluted in mineral water (Evian; Danone, Paris, France) and three containing mineral water only. At each concentration, subjects were challenged to identify the different sample, specify whether the quoted sample tasted bitter, and rate the perceived bitter intensity. Tests were performed with nose clips and oral rinsing, with a 45 s pause between concentrations. Training sessions were first used to familiarize subjects with the experimental procedures, and secondly, to assess general taste abilities. Concentration series consisted of geometric sequences of […], with a 1.5 common ratio and the following concentration ranges: 3.5x10^-5–2.0x10^-3M, 6.9x10^-4–4.0x10^-2 M, 2.6x10^-4–1.5x10^-2 M, 6.9x10^-4–4.0x10^-2 M, for salicin, sodium chloride, citric acid, and sucrose used as reference tastants for bitter, salty, sour, and sweet taste, respectively. Following training, subjects tested each tastant in triplicate over nine sessions. Latin square designs extended for first-order carry-over effects were used to counterbalance presentation order of the test compounds over the test sessions, across subjects and for each test compound, as well as presentation order of the samples at each concentration across both repetitions and subjects. Sensory sessions were monitored and data automatically collected (Fizz; Biosystèmes, Couternon, France).
Detection and recognition probabilities of the bitter samples were analysed per repetition and subject. Relationships between probabilities (detection or recognition probabilities) and concentrations were fitted by a logistic regression model using the maximum-likelihood method. Threshold value and slope of the logistic curves were then obtained per repetition and subject, using a self-implemented toolbox (Matlab; The MathWorks Inc.). […] Where required, outliers were discarded according to the Peirce’s criterion. Perceived intensities, expressed in percentage of the scale length, were analysed similarly.

The next assay concerns TAS2R31-H2. As to the kind of experiment: Calcium imaging in HEK 293T Gα16gust44 cells transfected with TAS2R31-H2. Type of assay: cell-based, human.
Text: (§4) Allelic responses to agonists were quantified using in vitro heterologous expression assays designed in previous studies of TAS2R receptor function, which successfully mimic responses in vivo with respect to both magnitude and concentration range [17, 23, 25, 26, 46]. DNA fragments containing TAS2R coding sequences were first amplified from genomic DNA by PCR using a proofreading polymerase (PfuUltra II Fusion HotStart DNA Polymerase; Agilent Technologies, Santa Clara, CA, USA) and cloned into a plasmid vector according to the manufacturer’s protocol (Zero Blunt TOPO PCR Cloning Kit; Life Technologies). […]
as §2, with “Six replicates were carried out for each bitter stimulus, on separate experimental days, with each replicate consisting of concentration series of each bitter tastant.” left out
(§5) Prior to final analysis, fluorescence data from functional assays, expressed in relative fluorescence units (RFU), underwent three corrections. […]

Another assay relates to TAS2R31-H4. Nature of the assay: Calcium imaging in HEK 293T Gα16gust44 cells transfected with TAS2R31-H4. Type of assay: cell-based, human.
Text: as §4
as §2, with “Six replicates were carried out for each bitter stimulus, on separate experimental days, with each replicate consisting of concentration series of each bitter tastant.” left out
as §5

The test system of the next assay is TAS2R31-H3. As to the kind of experiment: Calcium imaging in HEK 293T Gα16gust44 cells transfected with TAS2R31-H3. In kind it is cell-based, human.
Text: as §4
as §2, with “Six replicates were carried out for each bitter stimulus, on separate experimental days, with each replicate consisting of concentration series of each bitter tastant.” left out
as §5

The subject of the next assay is TAS2R31-H1. Nature of the assay: Calcium imaging in HEK 293T Gα16gust44 cells transfected with TAS2R31-H1. Type of assay: cell-based, human.
Text: as §4
as §2, with “Six replicates were carried out for each bitter stimulus, on separate experimental days, with each replicate consisting of concentration series of each bitter tastant.” left out
as §5

[4] abbreviates: first concentration eliciting significant receptor activation.

Consider amarogentin, for which the threshold in the assay with TAS2R46-H3 worked out at 100 µM; at TAS2R46-H1 (setting [4]), 30 µM; in the assay on TAS2R43-H1, 300 µM; with TAS2R30-H1 (setting [4]) it was 10 nM; in the assay on TAS2R43-H2, 300 µM; with TAS2R30-H2 (setting [4]), 300 nM. The values for the EC50 on TAS2R46-H1, with TAS2R30-H1 and with TAS2R30-H2 were 67 µM, 0.41 µM and 0.39 µM, respectively. Besides, the maximum amplitude on TAS2R46-H1 is listed as 0.57 ΔF/F; in the assay with TAS2R30-H1, 0.50 ΔF/F; in the assay on TAS2R30-H2, 0.12 ΔF/F. For the same molecule, the “receptor variant response” value at TAS2R46-H2 was “not activated at any concentration”. For the same molecule, the “activation concentration of TAS2R43 relative to TAS2R30” value in assay [1] was 3000 fold. Also, the “TAS2Rs responsive in published receptor-agonist inventory” value in assay [2] was “TAS2R1, -4, -39, -43, -46, -30, and -50”. For the same molecule, the “bitter taste recognition threshold, mode of distribution” value in assay [3] (48 human subjects) turned out to be 40 nM. The “concentration perceived as strongly bitter, fold range across subjects” value in assay [3] (gLMS strong intensity) was “less than 4 fold”. Also, the “concentration perceived as weakly bitter, fold range across subjects” value in [3] (gLMS weak intensity) was 17 fold. The “concentration perceived as weakly bitter, mode” value in assay [3] (gLMS weak intensity) stood at 50 nM.

With `C=C[C@H]1C[N@@]2CC[C@H]1C[C@H]2[C@H](O)c1ccnc2ccc(OC)cc12` [quinine], the “receptor variant response” value in the assay on TAS2R31-H2 is reported as “sensitive”; in the assay with TAS2R31-H4 it was “intermediates”; in the assay with TAS2R31-H3 it was “insensitive”; with TAS2R31-H1, “intermediates”.

A word on the EC50: it is the concentration at which the effect is half-maximal.
